Data on one compound can be found in ChEMBL document CHEMBL6103648, “AI-Driven Discovery of Highly Specific and Efficacious hCES2A Inhibitors for Ameliorating Irinotecan-Triggered Gut Toxicity” (J Med Chem, 2025).

Calls of active or inactive are those of the source. The rule behind the calls is not given here.

Data set [1] in a line: Efflux ratio of apparent permeability across basal to apical side over apical to basal side in human Caco-2 cells at 25 uM incubated for 120 mins by UPLC-MS/MS analysis. The format is ADME, cell-based.
The next data set concerns the target Cholinesterase (Homo sapiens, UniProt P06276). The data set is described as follows: Inhibition of human BuChE using BTCI as substrate incubated for 3 mins by Ellman's method.
Data set [2] deals with T1, Palmitoleoyl-protein carboxylesterase NOTUM (Homo sapiens, UniProt Q6P988).
T1 sequence (Q6P988 whole entry): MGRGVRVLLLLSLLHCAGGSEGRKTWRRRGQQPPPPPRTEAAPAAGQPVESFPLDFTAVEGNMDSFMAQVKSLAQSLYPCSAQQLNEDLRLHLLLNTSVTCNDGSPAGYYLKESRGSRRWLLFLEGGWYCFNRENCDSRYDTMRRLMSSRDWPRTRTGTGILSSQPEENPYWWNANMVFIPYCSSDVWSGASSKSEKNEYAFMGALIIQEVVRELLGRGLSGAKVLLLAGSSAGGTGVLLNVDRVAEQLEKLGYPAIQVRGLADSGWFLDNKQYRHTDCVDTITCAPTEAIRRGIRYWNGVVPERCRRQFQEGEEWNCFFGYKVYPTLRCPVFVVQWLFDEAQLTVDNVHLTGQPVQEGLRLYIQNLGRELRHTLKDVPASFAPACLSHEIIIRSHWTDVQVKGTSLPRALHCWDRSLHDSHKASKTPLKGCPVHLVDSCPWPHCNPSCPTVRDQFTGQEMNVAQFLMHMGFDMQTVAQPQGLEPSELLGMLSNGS
The data set is described as follows: Inhibition of human Notum using OPTS as substrate preincubated for 1 min followed by substrate addition by fluorescence based assay.

The nature of data set [3]: Inhibition of human pancreatic lipase using DDAO-ol as substrate preincubated for 3 mins followed by substrate addition by fluorescence based assay.
Data set [4] is described as follows: Apparent permeability across basal to apical side in human Caco-2 cells at 100 uM incubated for 120 mins by UPLC-MS/MS analysis. It counts as ADME, cell-based.
The species named for data set [5] is Homo sapiens. Kind of data set: Covalent binding affinity to human CES2A Ser228 catalytic site assessed as covalent modification at 10 uM incubated for 4 hrs by nano-LC-MS/MS analysis.
The nature of data set [6]: Inhibition of human CES1A using NLMe as substrate preincubated for 3 mins followed by substrate addition measured after 30 mins by chemiluminescence analysis.
The next data set deals with Cytochrome P450 2C19 (Homo sapiens, UniProt P33261). The data set is described as follows: Inhibition of CYP2C19 in human liver microsomes using omeprazole as substrate upto 10 uM. The format is ADME, Microsome.
The nature of data set [7]: Permeability across apical to basal side in human Caco-2 cells assessed as cumulative penetration amount at 100 uM incubated for 120 mins by UPLC-MS/MS analysis. The note with it: caco-2, 2 h. It counts as ADME, cell-based.
The next data set has as its target T2, Cytochrome P450 2C8 (Homo sapiens, UniProt P10632).
T2 sequence (P10632 whole entry): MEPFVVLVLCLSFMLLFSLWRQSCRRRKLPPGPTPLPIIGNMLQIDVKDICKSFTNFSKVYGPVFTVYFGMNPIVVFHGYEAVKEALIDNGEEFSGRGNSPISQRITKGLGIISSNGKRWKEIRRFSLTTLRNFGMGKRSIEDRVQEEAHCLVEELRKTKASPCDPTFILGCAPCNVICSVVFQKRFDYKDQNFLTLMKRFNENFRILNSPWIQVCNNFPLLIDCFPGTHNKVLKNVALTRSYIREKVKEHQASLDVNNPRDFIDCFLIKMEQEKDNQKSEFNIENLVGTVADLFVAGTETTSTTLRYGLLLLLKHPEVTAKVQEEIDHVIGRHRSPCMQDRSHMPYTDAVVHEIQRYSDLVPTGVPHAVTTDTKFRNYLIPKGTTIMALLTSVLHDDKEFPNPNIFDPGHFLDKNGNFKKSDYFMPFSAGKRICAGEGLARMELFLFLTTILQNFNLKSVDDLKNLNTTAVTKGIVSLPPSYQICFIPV
The data set is described as follows: Inhibition of CYP2C8 in human liver microsomes using paclitaxel as substrate upto 10 uM. The format is ADME, Microsome.

Data set [8] concerns Mus musculus. The data set is described as follows: Inhibition of irinotecan-triggered gut toxicity in C57BL/6J mouse bearing tumor cells assessed as decrease in DAI score at 25 to 50 mg/kg/day, po treated for 14 days. It counts as functional, organism-based. The conditions noted are these: dose 25-50 mg/kg/day, time 14.0 day.
A short description of data set [9]: Sub-acute toxicity in C57BL/6J mouse assessed as change in ALB level at 100 mg/kg/day, po treated for 14 days consecutively. The conditions noted are these: in vivo, 336 h, time 14 day. The format is organism-based.
Data set [10] concerns Mus musculus. The data set is described as follows: Inhibition of irinotecan-triggered gut toxicity in C57BL/6J mouse bearing tumor cells assessed as decrease in serum ALT level at 25 to 50 mg/kg/day, po treated for 14 days. It counts as functional, organism-based. The conditions noted are these: dose 25-50 mg/kg/day, time 14.0 day.
Data set [11] deals with Mus musculus. Kind of data set: Inhibition of irinotecan-triggered gut toxicity in C57BL/6J mouse bearing tumor cells assessed as decrease in IL-6 level in colon tissue administered orally treated for 14 days. The format is functional, organism-based. The conditions noted are these: dose 25-50 mg/kg/day, route po, time 14.0 day.
Data set [12] is described as follows: Drug distribution in duodenum of C57BL/6J mouse at 100 mg/kg, po administered as single dose measured for 0.5 to 3 hrs by UHPLC-Q-Orbitrap HRMS analysis. The format is ADME, organism-based. The note with it: in vivo, time 0.5-3 hrs.
For data set [13], the species on record is Homo sapiens. Kind of data set: Irreversible inhibition of human CES2A measured after 12 hrs by dialysis assay.
Data set [14] relates to Mus musculus. Kind of data set: Inhibition of irinotecan-triggered gut toxicity in C57BL/6J mouse bearing tumor cells assessed as decrease in serum UREA level at 25 to 50 mg/kg/day, po treated for 14 days. It counts as functional, organism-based. The note with it: dose 25-50 mg/kg/day, time 14.0 day.
Data set [15] can be described thus: Sub-acute toxicity in C57BL/6J mouse assessed as change in mental state at 100 mg/kg/day, po treated for 14 days consecutively. It counts as organism-based. The note with it: in vivo, 336 h, time 14 day.

Chain of Cytochrome P450 2C19 (P33261 whole entry): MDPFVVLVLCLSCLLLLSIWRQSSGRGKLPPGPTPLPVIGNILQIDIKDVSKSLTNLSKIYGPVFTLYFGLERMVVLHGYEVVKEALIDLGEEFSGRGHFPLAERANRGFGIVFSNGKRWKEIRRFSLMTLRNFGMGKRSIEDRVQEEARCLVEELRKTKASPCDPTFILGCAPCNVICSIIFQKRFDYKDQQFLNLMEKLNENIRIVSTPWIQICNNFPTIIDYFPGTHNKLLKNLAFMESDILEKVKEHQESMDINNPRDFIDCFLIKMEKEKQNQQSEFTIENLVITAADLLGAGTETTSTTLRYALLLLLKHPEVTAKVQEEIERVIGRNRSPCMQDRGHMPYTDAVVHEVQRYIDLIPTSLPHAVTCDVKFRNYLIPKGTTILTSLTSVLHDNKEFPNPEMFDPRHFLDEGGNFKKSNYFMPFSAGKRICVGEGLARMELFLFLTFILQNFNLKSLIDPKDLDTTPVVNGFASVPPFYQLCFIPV
Chain of Cholinesterase (P06276 whole entry): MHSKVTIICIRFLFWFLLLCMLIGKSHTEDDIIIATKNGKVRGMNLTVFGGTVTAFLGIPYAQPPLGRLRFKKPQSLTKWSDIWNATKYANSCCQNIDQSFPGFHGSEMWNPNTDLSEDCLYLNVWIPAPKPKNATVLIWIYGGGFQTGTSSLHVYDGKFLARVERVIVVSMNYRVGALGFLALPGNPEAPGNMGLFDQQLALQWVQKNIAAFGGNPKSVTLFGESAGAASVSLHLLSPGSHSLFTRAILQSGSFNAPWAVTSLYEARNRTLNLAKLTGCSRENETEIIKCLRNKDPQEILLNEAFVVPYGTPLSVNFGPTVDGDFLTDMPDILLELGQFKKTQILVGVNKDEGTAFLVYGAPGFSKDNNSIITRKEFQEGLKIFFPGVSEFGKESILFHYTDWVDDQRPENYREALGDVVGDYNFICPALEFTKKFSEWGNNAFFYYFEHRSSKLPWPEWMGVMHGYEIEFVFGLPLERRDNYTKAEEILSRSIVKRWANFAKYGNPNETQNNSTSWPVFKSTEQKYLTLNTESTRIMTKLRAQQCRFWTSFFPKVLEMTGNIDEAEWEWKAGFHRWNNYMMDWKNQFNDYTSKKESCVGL

`CCN(C)C(=O)Oc1ccc(C(=O)N2CCC(Cc3ccccc3)CC2)cc1OC`: the efflux ratio at 2 h, 25 µM in [1] is 0.64. Also, the IC50 against Cholinesterase was 3.06 µM; in data set [2], more than 10 µM; in data set [3] it was more than 10 µM; in [6], 2.42 µM. In data set [4], the Papp B→A at 2 h, 100 µM is 7.8 ×10⁻⁶ cm/s. Further, the Activity result in the data set listed under Homo sapiens [5] was “Active; Compound Exhibited As Covalent Inhibitor”; in data set [7], 9.47 µM; in data set [9], “Non-toxic”; in data set [15], “Non-toxic”. Also, the “inhibition (INH)” value at Cytochrome P450 2C19 and against Cytochrome P450 2C8 was “Not_active” each time. The inhibition result with Mus musculus [8], with Mus musculus [10], with Mus musculus [11], in the data set listed under Homo sapiens [13] and in the data set with Mus musculus [14] was “Active” in each case. Further, the Drug uptake entry in data set [12] is “Active”.
